Measured values from US9730937B2, “RAF kinase modulator compounds and methods of use thereof” (AMBIT BIOSCIENCES CORPORATION, priority 2008, dated 2017).
pKd: −log10 of the molar value. Counter-ions that a name gives are not always drawn. Like-named read-outs stand apart in the source and are kept apart here.

Experiments:
[1] = target: mutant BRAF kinase (Homo sapiens (Human), UniProt P15056, V600E); details: read-out: BRAF V600E Kd, class symbols
[2] = system: panel of 290 distinct kinases (321 in the larger panel), excluding mutant variants
[3] = kinase selectivity score, 290 distinct kinases, class symbols
[4] = no asterisk: panel of 290 distinct kinases

Chain of mutant BRAF kinase (P15056 whole entry V600E): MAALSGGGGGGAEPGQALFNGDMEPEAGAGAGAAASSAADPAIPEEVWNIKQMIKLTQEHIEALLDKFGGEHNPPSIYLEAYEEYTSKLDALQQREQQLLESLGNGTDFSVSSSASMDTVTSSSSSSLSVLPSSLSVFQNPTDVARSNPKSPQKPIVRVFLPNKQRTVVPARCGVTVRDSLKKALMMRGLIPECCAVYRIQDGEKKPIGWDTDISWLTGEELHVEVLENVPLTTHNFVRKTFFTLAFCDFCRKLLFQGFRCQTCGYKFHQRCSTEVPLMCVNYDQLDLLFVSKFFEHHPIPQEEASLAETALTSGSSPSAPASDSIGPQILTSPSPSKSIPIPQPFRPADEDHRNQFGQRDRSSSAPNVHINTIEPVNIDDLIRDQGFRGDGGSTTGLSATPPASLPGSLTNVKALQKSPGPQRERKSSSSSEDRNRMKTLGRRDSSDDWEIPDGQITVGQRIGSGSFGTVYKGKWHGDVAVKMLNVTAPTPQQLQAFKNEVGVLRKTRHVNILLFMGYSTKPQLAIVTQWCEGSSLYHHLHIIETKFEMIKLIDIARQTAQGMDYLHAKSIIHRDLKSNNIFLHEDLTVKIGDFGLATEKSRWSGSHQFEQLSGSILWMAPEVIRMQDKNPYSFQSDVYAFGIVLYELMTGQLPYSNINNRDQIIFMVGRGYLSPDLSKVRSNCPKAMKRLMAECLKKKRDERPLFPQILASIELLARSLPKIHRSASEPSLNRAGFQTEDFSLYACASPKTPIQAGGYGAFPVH

SMILES	pKd [1]	S35 [2, 3]	S35 [2, 4]
COCCOc1cc2ncnc(Oc3cccc(NC(=O)Nc4cc(C(C)(C)C)on4)c3)c2cc1OC [Ex 7, 1-(5-tert-Butylisoxazol-3-yl)-3-{3-[6-methoxy-7-(2-methoxyethoxy)quinazolin-4-yloxy]phenyl}urea hydrochloride]	> 6.60	D (D > 0.40)	
COCCOc1cc2ncnc(Oc3cccc(NC(=O)Nc4cc(C(C)(C)C)on4)c3)c2cc1OCCOC [Ex 12, 1-{3-[6,7-bis(2-methoxyethoxy)quinazolin-4-yloxy]phenyl}-3-(5-tert-butylisoxazol-3-yl)urea hydrochloride]	> 6.60	C (0.20 < C ≦ 0.40)	
COc1cc2ncnc(Oc3ccc(F)c(NC(=O)Nc4cc(C(C)(C)C)nn4-c4ccccc4)c3)c2cc1OC [Ex 368, 1-(3-tert-butyl-1-phenyl-1H-pyrazol-5-yl)-3-(5-(6,7-dimethoxyquinazolin-4-yloxy)-2-fluorophenyl)urea]			D (D > 0.40)
COc1cc2ncnc(Oc3cccc(NC(=O)Nc4cc(C(C)(C)C)nn4-c4ccc(C(C)(C)C)cc4)c3)c2cc1OC [Ex 369, 1-(3-tert-butyl-1-(4-tert-butylphenyl)-1H-pyrazol-5-yl)-3-(3-(6,7-dimethoxyquinazolin-4-yloxy)phenyl)urea]			C (0.20 < C ≦ 0.40)
COc1cc2ncnc(Sc3cccc(NC(=O)Nc4cc(C(C)(C)C)nn4-c4ccc(C(C)(C)C)cc4)c3)c2cc1OC [Ex 370, 1-(3-tert-butyl-1-(4-tert-butylphenyl)-1H-pyrazol-5-yl)-3-(3-(6,7-dimethoxyquinazolin-4-ylthio)phenyl)urea]			D (D > 0.40)
COc1cc2ncnc(Sc3cccc(NC(=O)Nc4cc(C(C)(C)C)nn4-c4ccccc4F)c3)c2cc1OC [Ex 371, 1-(3-tert-butyl-1-(2-fluorophenyl)-1H-pyrazol-5-yl)-3-(3-(6,7-dimethoxyquinazolin-4-ylthio)phenyl)urea]			D (D > 0.40)
COc1cc2ncnc(Oc3cccc(NC(=O)Nc4cc(C(C)(C)C)nn4-c4ccccc4F)c3)c2cc1OC [Ex 372, 1-(3-tert-butyl-1-(2-fluorophenyl)-1H-pyrazol-5-yl)-3-(3-(6,7-dimethoxyquinazolin-4-yloxy)phenyl)urea]			D (D > 0.40)
COc1cc2ncnc(Oc3cccc(NC(=O)Nc4cc(C(C)(C)C)nn4-c4ccc(C(F)(F)F)cc4)c3)c2cc1OC [Ex 373, 1-(3-tert-butyl-1-(4-(trifluoromethyl)phenyl)-1H-pyrazol-5-yl)-3-(3-(6,7-dimethoxyquinazolin-4-yloxy)phenyl)urea]			C (0.20 < C ≦ 0.40)
COc1cc2ncnc(Sc3cccc(NC(=O)Nc4cc(C(C)(C)C)nn4-c4ccccc4C(F)(F)F)c3)c2cc1OC [Ex 375, 1-(3-tert-butyl-1-(2-(trifluoromethyl)phenyl)-1H-pyrazol-5-yl)-3-(3-(6,7-dimethoxyquinazolin-4-ylthio)phenyl)urea]			C (0.20 < C ≦ 0.40)
COc1cc2ncnc(Oc3cccc(NC(=O)Nc4cc(C(C)(C)C)nn4-c4ccccc4C(F)(F)F)c3)c2cc1OC [Ex 376, 1-(3-tert-butyl-1-(2-(trifluoromethyl)phenyl)-1H-pyrazol-5-yl)-3-(3-(6,7-dimethoxyquinazolin-4-yloxy)phenyl)urea]			D (D > 0.40)
COc1cc2ncnc(Oc3cccc(NC(=O)Nc4cc(C5(C(F)(F)F)CC5)on4)c3)c2cc1OC [Ex 377, 1-(3-(6,7-dimethoxyquinazolin-4-yloxy)phenyl)-3-(5-(1-(trifluoromethyl)cyclopropyl)isoxazol-3-yl)urea]			C (0.20 < C ≦ 0.40)
COc1cc2ncnc(Sc3cccc(NC(=O)Nc4cc(C5(C(F)(F)F)CC5)on4)c3)c2cc1OC [Ex 378, 1-(3-(6,7-dimethoxyquinazolin-4-ylthio)phenyl)-3-(5-(1-(trifluoromethyl)cyclopropyl)isoxazol-3-yl)urea]			C (0.20 < C ≦ 0.40)
COc1cc2ncnc(Oc3cccc(NC(=O)Nc4cc(C(C)(C)C)nn4-c4cccc(C(F)(F)F)c4)c3)c2cc1OC [Ex 379, 1-(3-tert-butyl-1-(3-(trifluoromethyl)phenyl)-1H-pyrazol-5-yl)-3-(3-(6,7-dimethoxyquinazolin-4-yloxy)phenyl)urea]			D (D > 0.40)
COc1cc2ncnc(Sc3cccc(NC(=O)Nc4cc(C(C)(C)C)nn4-c4cccc(C(F)(F)F)c4)c3)c2cc1OC [Ex 380, 1-(3-tert-butyl-1-(3-(trifluoromethyl)phenyl)-1H-pyrazol-5-yl)-3-(3-(6,7-dimethoxyquinazolin-4-ylthio)phenyl)urea]			C (0.20 < C ≦ 0.40)
COc1cc2ncnc(Sc3cccc(NC(=O)Nc4cc(C(C)(C)C#N)no4)c3)c2cc1OC [Ex 381, 1-(3-(2-cyanopropan-2-yl)isoxazol-5-yl)-3-(3-(6,7-dimethoxyquinazolin-4-ylthio)phenyl)urea]			C (0.20 < C ≦ 0.40)
COc1cc2ncnc(Sc3cccc(NC(=O)Nc4cc(C(F)(F)F)no4)c3)c2cc1OC [Ex 382, 1-(3-(6,7-dimethoxyquinazolin-4-ylthio)phenyl)-3-(3-(trifluoromethyl)isoxazol-5-yl)urea]			C (0.20 < C ≦ 0.40)

SMILES	pKd [1]	S35 [2, 3]	S35 [2, 4]
COc1cc2ncnc(Sc3cccc(NC(=O)Nc4cc(C5(C(F)(F)F)CC5)nn4-c4ccccc4)c3)c2cc1OC [Ex 383, 1-(3-(6,7-dimethoxyquinazolin-4-ylthio)phenyl)-3-(1-phenyl-3-(1-(trifluoromethyl)cyclopropyl)-1H-pyrazol-5-yl)urea]			C (0.20 < C ≦ 0.40)
CCOc1cc2ncnc(Oc3cccc(NC(=O)Nc4cc(C(C)(C)F)no4)c3)c2cc1OC [Ex 385, 1-(3-(7-ethoxy-6-methoxyquinazolin-4-yloxy)phenyl)-3-(3-(2-fluoropropan-2-yl)isoxazol-5-yl)urea]			C (0.20 < C ≦ 0.40)
CCOc1cc2ncnc(Oc3cccc(NC(=O)Nc4cc(C(C)(CF)CF)on4)c3)c2cc1OC [Ex 386, 1-(5-(1,3-difluoro-2-methylpropan-2-yl)isoxazol-3-yl)-3-(3-(7-ethoxy-6-methoxyquinazolin-4-yloxy)phenyl)urea]			C (0.20 < C ≦ 0.40)
CCOc1cc2ncnc(Oc3cccc(NC(=O)Nc4cc(C(C)(C)C)nn4-c4ccccc4)c3)c2cc1OC [Ex 387, 1-(3-tert-butyl-1-phenyl-1H-pyrazol-5-yl)-3-(3-(7-ethoxy-6-methoxyquinazolin-4-yloxy)phenyl)urea]			D (D > 0.40)
CCOc1cc2ncnc(Sc3cccc(NC(=O)Nc4cc(C(C)(C)F)no4)c3)c2cc1OC [Ex 389, 1-(3-(7-ethoxy-6-methoxyquinazolin-4-ylthio)phenyl)-3-(3-(2-fluoropropan-2-yl)isoxazol-5-yl)urea]			C (0.20 < C ≦ 0.40)
CCOc1cc2c(Oc3cccc(NC(=O)Nc4cc(C(C)(C)C)nn4-c4ccccc4)c3)ncnc2cc1OC [Ex 390, 1-(3-tert-butyl-1-phenyl-1H-pyrazol-5-yl)-3-(3-(6-ethoxy-7-methoxyquinazolin-4-yloxy)phenyl)urea]			D (D > 0.40)
CCOc1cc2c(Oc3cccc(NC(=O)Nc4cc(C(F)(F)F)nn4-c4ccccc4)c3)ncnc2cc1OC [Ex 391, 1-(3-(6-ethoxy-7-methoxyquinazolin-4-yloxy)phenyl)-3-(1-phenyl-3-(trifluoromethyl)-1H-pyrazol-5-yl)urea]			C (0.20 < C ≦ 0.40)
CCOc1cc2c(Oc3cccc(NC(=O)Nc4cc(C(C)(C)F)no4)c3)ncnc2cc1OC [Ex 392, 1-(3-(6-ethoxy-7-methoxyquinazolin-4-yloxy)phenyl)-3-(3-(2-fluoropropan-2-yl)isoxazol-5-yl)urea]			C (0.20 < C ≦ 0.40)
CCOc1cc2c(Oc3cccc(NC(=O)Nc4cc(C(C)(CF)CF)on4)c3)ncnc2cc1OC [Ex 393, 1-(5-(1,3-difluoro-2-methylpropan-2-yl)isoxazol-3-yl)-3-(3-(6-ethoxy-7-methoxyquinazolin-4-yloxy)phenyl)urea]			C (0.20 < C ≦ 0.40)
CCOc1cc2c(Sc3cccc(NC(=O)Nc4cc(C(C)(C)F)no4)c3)ncnc2cc1OC [Ex 394, 1-(3-(6-ethoxy-7-methoxyquinazolin-4-ylthio)phenyl)-3-(3-(2-fluoropropan-2-yl)isoxazol-5-yl)urea]			C (0.20 < C ≦ 0.40)
CCOc1cc2c(Sc3cccc(NC(=O)Nc4cc(C(C)(CF)CF)on4)c3)ncnc2cc1OC [Ex 395, 1-(5-(1,3-difluoro-2-methylpropan-2-yl)isoxazol-3-yl)-3-(3-(6-ethoxy-7-methoxyquinazolin-4-ylthio)phenyl)urea]			C (0.20 < C ≦ 0.40)
COc1cc2c(Oc3cccc(NC(=O)Nc4cc(C(F)(F)F)nn4-c4ccccc4)c3)ncnc2cc1OCCN1CCOCC1 [Ex 396, 1-(3-(6-Methoxy-7-(2-morpholinoethoxy)quinazolin-4-yloxy)phenyl)-3-(1-phenyl-3-(trifluoromethyl)-1H-pyrazol-5-yl)urea]			C (0.20 < C ≦ 0.40)
COc1cc2ncnc(Oc3cc(NC(=O)Nc4cc(C(F)(F)F)nn4-c4ccccc4)ccc3F)c2cc1OC [Ex 397, 1-(3-(6,7-Dimethoxyquinazolin-4-yloxy)-4-fluorophenyl)-3-(1-phenyl-3-(trifluoromethyl)-1H-pyrazol-5-yl)urea]			C (0.20 < C ≦ 0.40)
CCc1cc(NC(=O)Nc2cccc(Sc3ncnc4cc(OC)c(OC)cc34)c2)n(-c2ccccc2)n1 [Ex 399, 1-(3-(6,7-dimethoxyquinazolin-4-ylthio)phenyl)-3-(3-ethyl-1-phenyl-1H-pyrazol-5-yl)urea]			C (0.20 < C ≦ 0.40)
CCOc1cc2ncnc(Oc3cccc(NC(=O)Nc4cc(C(F)(F)F)nn4-c4ccccc4)c3)c2cc1OC [Example 384, 1-(3-(7-ethoxy-6-methoxyquinazolin-4-yloxy)phenyl)-3-(1-phenyl-3-(trifluoromethyl)-1H-pyrazol-5-yl)urea]			C (0.20 < C ≦ 0.40)
CCOc1cc2ncnc(Sc3cccc(NC(=O)Nc4cc(C(C)(CF)CF)on4)c3)c2cc1OC [Example 388, 1-(5-(1,3-difluoro-2-methylpropan-2-yl)isoxazol-3-yl)-3-(3-(7-ethoxy-6-methoxyquinazolin-4-ylthio)phenyl)urea]			C (0.20 < C ≦ 0.40)
